# Counter-ions that a name gives are not always drawn.
# Molecular target: T1, BACE-2 (Homo sapiens, UniProt Q9Y5Z0)
# T1 construct: Recombinant BACE-2 (extracellular domain, expressed in baculovirus and purified using standard methods); made in house
# T1 sequence (Q9Y5Z0 63-473 limits assumed): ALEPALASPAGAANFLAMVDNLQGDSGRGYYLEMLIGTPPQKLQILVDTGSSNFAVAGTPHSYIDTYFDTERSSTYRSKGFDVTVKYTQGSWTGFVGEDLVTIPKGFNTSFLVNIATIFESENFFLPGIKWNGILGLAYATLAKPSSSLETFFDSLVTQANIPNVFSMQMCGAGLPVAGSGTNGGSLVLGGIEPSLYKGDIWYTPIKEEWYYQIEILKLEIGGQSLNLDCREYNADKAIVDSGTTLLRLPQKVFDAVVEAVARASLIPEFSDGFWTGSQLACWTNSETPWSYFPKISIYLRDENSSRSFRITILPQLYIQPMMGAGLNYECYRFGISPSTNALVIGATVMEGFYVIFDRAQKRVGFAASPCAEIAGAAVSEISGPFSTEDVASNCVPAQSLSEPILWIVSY
# Experiment: assay for inhibition of BACE-2
# Assay type: biochemical
row,IC50,Structure (SMILES)
1,8 nM,"[2H]c1nc(C(=O)Nc2cc(F)c(F)c([C@]3(C(F)F)COCC(N)=N3)c2)c(C([2H])([2H])[2H])c([2H])c1Cl [Example 230, 4,6-Dideutero-5-chloro-3-trideuteromethyl-pyridine-2-carboxylic acid [3-((R)-5-amino-3-difluoromethyl-3,6-dihydro-2H-[1,4]oxazin-3-yl)-4,5-difluoro-phenyl]-amide]"
2,6 nM,"C[C@@]1(c2cc(NC(=O)c3ncc(C#N)cc3Cl)ccc2F)CO[C@@](C)(C(F)(F)F)C(N)=N1 [Example 231, 3-Chloro-5-cyano-pyridine-2-carboxylic acid [3-((3R,6R)-5-amino-3,6-dimethyl-6-trifluoromethyl-3,6-dihydro-2H-[1,4]oxazin-3-yl)-4-fluoro-phenyl]-amide hydrochloride]"
3,7 nM,"COc1cnc(C(=O)Nc2ccc(F)c([C@]3(C)CO[C@@](C)(C(F)(F)F)C(N)=N3)c2)c(Cl)c1 [Example 232, 3-Chloro-5-methoxy-pyridine-2-carboxylic acid [3-((3R,6R)-5-amino-3,6-dimethyl-6-trifluoromethyl-3,6-dihydro-2H-[1,4]oxazin-3-yl)-4-fluoro-phenyl]-amide hydrochloride]"
4,2 nM,"Cc1cc(Cl)cnc1C(=O)Nc1ccc(F)c([C@]2(C)CO[C@@](C)(C(F)(F)F)C(N)=N2)c1 [Example 234, 5-Chloro-3-methyl-pyridine-2-carboxylic acid [3-((3R,6R)-5-amino-3,6-dimethyl-6-trifluoromethyl-3,6-dihydro-2H-[1,4]oxazin-3-yl)-4-fluoro-phenyl]-amide hydrochloride]"
5,2 nM,"C[C@@]1(c2cc(NC(=O)c3ncc(Cl)cc3F)ccc2F)CO[C@@](C)(C(F)(F)F)C(N)=N1 [Example 235, 5-Chloro-3-fluoro-pyridine-2-carboxylic acid [3-((3R,6R)-5-amino-3,6-dimethyl-6-trifluoromethyl-3,6-dihydro-2H-[1,4]oxazin-3-yl)-4-fluoro-phenyl]-amide hydrochloride]"
6,6 nM,"Cl.[2H]C([2H])([2H])Oc1cnc(C(=O)Nc2ccc(F)c([C@]3(C)CO[C@@](C)(C(F)(F)F)C(N)=N3)c2)c(Cl)c1 [Example 236, 3-Chloro-5-trideutero-methoxy-pyridine-2-carboxylic acid [3-((3R,6R)-5-amino-3,6-dimethyl-6-trifluoromethyl-3,6-dihydro-2H-[1,4]oxazin-3-yl)-4-fluoro-phenyl]-amide hydrochloride]"
7,7 nM,"Cc1nc(C(=O)Nc2ccc(F)c([C@]3(C)CO[C@@](C)(C(F)(F)F)C(N)=N3)c2)c(C)o1 [Example 237, 2,5-Dimethyl-oxazole-4-carboxylic acid [3-((3R,6R)-5-amino-3,6-dimethyl-6-trifluoromethyl-3,6-dihydro-2H-[1,4]oxazin-3-yl)-4-fluoro-phenyl]-amide hydrochloride]"
8,12 nM,Cc1cc(OC(F)F)cnc1C(=O)Nc1ccc(F)c([C@]2(C)CO[C@@](C)(C(F)(F)F)C(N)=N2)c1 [Example 238]
9,15 nM,C#CCOc1cnc(C(=O)Nc2ccc(F)c([C@]3(C)CO[C@@](C)(C(F)(F)F)C(N)=N3)c2)c(N)n1 [Example 239]
10,8 nM,"Cc1cc(C(F)F)cnc1C(=O)Nc1ccc(F)c([C@]2(C)CO[C@@](C)(C(F)(F)F)C(N)=N2)c1 [Example 241, 5-Difluoromethyl-3-methyl-pyridine-2-carboxylic acid [3-((3R,6R)-5-amino-3,6-dimethyl-6-trifluoromethyl-3,6-dihydro-2H-[1,4]oxazin-3-yl)-4-fluoro-phenyl]-amide hydrochloride]"
11,11 nM,"C[C@@]1(c2cc(NC(=O)c3ncc(C(F)F)nc3N)ccc2F)CO[C@@](C)(C(F)(F)F)C(N)=N1 [Example 242, 3-Amino-5-difluoromethyl-pyrazine-2-carboxylic acid [3-((3R,6R)-5-amino-3,6-dimethyl-6-trifluoromethyl-3,6-dihydro-2H-[1,4]oxazin-3-yl)-4-fluoro-phenyl]-amide]"
12,11 nM,"C[C@@]1(c2cc(NC(=O)c3ncc(C(F)F)cc3N)ccc2F)CO[C@@](C)(C(F)(F)F)C(N)=N1 [Example 243, 3-Amino-5-difluoromethyl-pyridine-2-carboxylic acid [3-((3R,6R)-5-amino-3,6-dimethyl-6-trifluoromethyl-3,6-dihydro-2H-[1,4]oxazin-3-yl)-4-fluoro-phenyl]-amide]"
13,9 nM,"COc1cc(C(F)F)c(C(=O)Nc2ccc(F)c([C@]3(C)CO[C@@](C)(C(F)(F)F)C(N)=N3)c2)nn1 [Example 244, 4-Difluoromethyl-6-methoxy-pyridazine-3-carboxylic acid [3-((3R,6R)-5-amino-3,6-dimethyl-6-trifluoromethyl-3,6-dihydro-2H-[1,4]oxazin-3-yl)-4-fluoro-phenyl]-amide hydrochloride]"
14,13 nM,"[2H]C([2H])([2H])OCc1cc(C#N)cnc1C(=O)Nc1ccc(F)c([C@]2(C)CO[C@@](C)(C(F)(F)F)C(N)=N2)c1 [Example 245, 5-Cyano-3-trideuteromethoxymethyl-pyridine-2-carboxylic acid [3-((3R,6R)-5-amino-3,6-dimethyl-6-trifluoromethyl-3,6-dihydro-2H-[1,4]oxazin-3-yl)-4-fluoro-phenyl]-amide]"
15,8 nM,"C[C@@]1(c2cc(NC(=O)c3ncc(C(F)F)cc3Cl)ccc2F)CO[C@@](C)(C(F)(F)F)C(N)=N1 [Example 246, 3-Chloro-5-difluormethyl-pyridine-2-carboxylic acid [3-((3R,6R)-5-amino-3,6-dimethyl-6-trifluoromethyl-3,6-dihydro-2H-[1,4]oxazin-3-yl)-4-fluoro-phenyl]-amide-amide]"
16,44 nM,"[2H]C([2H])([2H])OC([2H])([2H])c1cc2c(Cl)c[nH]c2nc1C(=O)Nc1ccc(F)c([C@]2(C)CO[C@@](C)(C(F)(F)F)C(N)=N2)c1 [Example 247, 3-Chloro-5-trideuteromethoxy-dideuteromethyl-1H-pyrrolo[2,3-b]pyridine-6-carboxylic acid [3-((3R,6R)-5-amino-3,6-dimethyl-6-trifluoromethyl-3,6-dihydro-2H-[1,4]oxazin-3-yl)-4-fluoro-phenyl]-amide]"

# More lines, now with the values behind:
row,Structure (SMILES),IC50
1,"CC(=O)N1CC(N)=NC(c2cc(NC(=O)c3ncc(OC(F)F)cc3C)ccc2F)(C(F)F)C1 (stereo not drawn) [Example 211, 5-Difluoromethoxy-3-methyl-pyridine-2-carboxylic acid [3-(4-acetyl-6-amino-2-difluoromethyl-2,3,4,5-tetrahydro-pyrazin-2-yl)-4-fluoro-phenyl]-amide]",89 nM
2,"NC1=N[C@@](c2cc(NC(=O)c3ncc(=O)[nH]c3N)ccc2F)(C(F)F)CNC1 [Example 214, 3-Amino-5-oxo-4,5-dihydro-pyrazine-2-carboxylic acid [3-((R)-6-amino-2-difluoromethyl-2,3,4,5-tetrahydro-pyrazin-2-yl)-4-fluoro-phenyl]-amide]",757 nM
3,"COCc1cc(Cl)cnc1C(=O)Nc1ccc(F)c([C@]2(C(F)F)COCC(N)=N2)c1 [Example 215, 5-Chloro-3-methoxymethyl-pyridine-2-carboxylic acid [3-((R)-5-amino-3-difluoromethyl-3,6-dihydro-2H-[1,4]oxazin-3-yl)-4-fluoro-phenyl]-amide]",11 nM
4,N#Cc1cnc(C(=O)Nc2ccc(F)c([C@]3(C(F)F)COCC(N)=N3)c2)c(Cl)c1 [Example 216],61 nM
5,[2H]C([2H])([2H])Oc1cnc(C(=O)Nc2ccc(F)c([C@]3(C(F)F)COCC(N)=N3)c2)c(N)n1 [Example 217],153 nM
6,C#CCOc1cnc(C(=O)Nc2ccc(F)c([C@]3(C(F)F)COCC(N)=N3)c2)c(N)n1 [Example 218],125 nM
7,NC1=N[C@@](c2cc(NC(=O)c3ccc4c(Cl)c[nH]c4n3)ccc2F)(C(F)F)COC1 [Example 219],117 nM
8,NC1=N[C@@](c2cc(NC(=O)c3ncc(C(F)F)nc3N)ccc2F)(C(F)F)COC1 [Example 220],116 nM
9,COc1cnc(C(=O)Nc2ccc(F)c([C@]3(C(F)F)COCC(N)=N3)c2)c(C)c1 [Example 221],65 nM
10,Cc1cc(C(F)F)cnc1C(=O)Nc1ccc(F)c([C@]2(C(F)F)COCC(N)=N2)c1 [Example 222],52 nM
11,[2H]C([2H])([2H])OCc1cc(F)cnc1C(=O)Nc1ccc(F)c([C@]2(C(F)F)COCC(N)=N2)c1 [Example 223],59 nM
12,[2H]C([2H])([2H])OCc1cc(OC([2H])([2H])[2H])cnc1C(=O)Nc1ccc(F)c([C@]2(C(F)F)COCC(N)=N2)c1 [Example 224],103 nM
13,N#Cc1cnc(C(=O)Nc2ccc(F)c([C@]3(C(F)F)COCC(N)=N3)c2)c(N)c1 [Example 225],27 nM
14,NC1=N[C@@](c2cc(NC(=O)c3ncc(C(F)F)cc3N)ccc2F)(C(F)F)COC1 [Example 226],90 nM
15,[2H]C([2H])([2H])Oc1cnc(C(=O)Nc2ccc(F)c([C@]3(C(F)F)COCC(N)=N3)c2)c(C)c1 [Example 227],64 nM
16,"Cc1cc(C#N)cnc1C(=O)Nc1cc(F)c(F)c([C@]2(C(F)F)COCC(N)=N2)c1 [Example 228, 5-Cyano-3-methyl-pyridine-2-carboxylic acid [3-((R)-5-amino-3-difluoromethyl-3,6-dihydro-2H-[1,4]oxazin-3-yl)-4,5-difluoro-phenyl]-amide]",61 nM
17,"[2H]C([2H])([2H])Oc1cnc(C(=O)Nc2cc(F)c(F)c([C@]3(C(F)F)COCC(N)=N3)c2)c(Cl)c1 [Example 229, 3-Chloro-5-trideuteromethoxy-pyridine-2-carboxylic acid [3-((R)-5-amino-3-difluoromethyl-3,6-dihydro-2H-[1,4]oxazin-3-yl)-4,5-difluoro-phenyl]-amide]",73 nM
